Test results: patent US20080167532A1, “ASSESSING CANCER TREATMENT RESPONSIVENESS” (Mayo Foundation for Medical Education and Research, priority 2006, published 2008)
pIC50: −log10 of the molar value. “Also recorded” adds a separate entry of the source. Read-outs that look alike come from different tables or passages of the source.

Key:
DRO cells [1] = assay: Western blot of RhoB, RhoA, p21, cyclin E polypeptides in DRO cells; format: cell-based, human
Experimental: RhoB and p21^WAF1/CIP1 polypeptide expression also was examined in ATC cells to determine the time course of induction of each polypeptide following stimulation with a PPARγ agonist (FIG. 6). […]. Polypeptide lysates were prepared and examined for RhoB, RhoA and β-actin expression. […]; FIG. 6A).
The time course for induction of RhoB and p21^WAF1/CIP1 was determined using Western blotting.
(§1) DRO90-1 (DRO) and ARO81 (ARO) cells were derived from primary cultures of human anaplastic thyroid carcinoma tumors that were obtained from Dr. G. J. Juillard (University of California-Los Angeles, Los Angeles, Calif.), and KTC-2 and KTC3 cells were obtained from Dr. Junichi Kurebayashi (Podtcheko et al., J. Clin. Endocrinol. Metab., 88:1889-1896 (2003) and Pushkarev et al., Molecular mechanisms of the Effects of Low Concentrations of Taxol in Anaplastic Thyroid Cancer Cells. Endocrinology: en. 2004-0127 (2004)). Cells were cultured in RPMI 1640 medium (Cellgro, Herndon Va.) supplemented with 10% charcoal-stripped fetal bovine serum (Hyclone), non-essential amino acids, sodium pyruvate, and penicillin-streptomycin-amphotericin B at 37° C. in a humidified atmosphere with 5% CO^2. Charcoal-stripped serum was used to exclude endogenous PPAR ligands contained in serum. For proliferation studies, cells were plated in triplicate in 12-well culture plates at initial concentrations of 2×10^4 cells/well. After overnight incubation, cells were treated with 10 nM RS5444 or DMSO diluent (Sigma) for 6 days with medium, and drug changed every 48 hours. After 6 days, cells were washed with PBS (Cellgro), trypsinized, and counted by Beckman Coulter Counter (Beckman Instruments, Fullerton Calif.). For morphology studies, cells were plated in 12 well plates at initial concentrations of 2.5×10^4 cells/well. Cells were treated with either DMSO or 10 nM RS5444 (24 hours). After treatment, phase images were obtained on an inverted microscope. For real time PCR studies, cells were plated in 60 mm plates at 50% confluence and treated with 10 nM RS5444 for indicated incubation periods. […].
Cells were collected and lysed in RIPA buffer containing 50 mM Tris, 5 mM EDTA, 150 mM NaCl, 0.1% SDS, 0.5% Deoxycholate, 1% NP40, and protease inhibitor cocktail (Roche) followed by centrifugation. Excised tumor tissues were lysed in 50 mM Tris pH 8.0+1% SDS. Collected supernatants were, analyzed for protein concentration using Pierce's BCA assay, with 25 μg protein loaded per gel lane (Invitrogen) with later transfer to Immobilon-P membranes. The membranes were hybridized with antibodies (Santa Cruz, Cell Signaling, Sigma-Aldrich, St. Louis Mo.) as indicated overnight at 4° C. followed by treatment with species-specific horseradish peroxidase IgG (Jackson labs) for 45 minutes at room temperature. Detection was performed using Supersignal West Pico chemoluminescence kit (Pierce). Quantification of bands was performed in triplicate using Image Quant 5.2 (Molecular Dynamics, Sunnyvale Calif.).

DRO cells [2] = assay: DRO cell proliferation (cell counts over six days); format: cell-based, human; details: for pIC50: Homo sapiens
Experimental: . Cells were treated every 48 hours over six days. Cell numbers were counted and data were plotted as mean values ±S.D. The thiazolidinediones inhibited cell proliferation of DRO cells in a dose responsive fashion (FIG. 3B). […]. The EC50 concentrations were in close agreement with the IC50 concentrations for each compound (FIG. 3B).
. […] Cell numbers were counted and data were plotted as mean values ±S.D. (FIG. 9D).
as §1, with “[…].” for “For morphology studies, cells were plated in 12 well plates at initial concentrations of 2.5×10^4 cells/well.”
Cells were either plated in triplicate at 7.5×10^4 cells/mL in 6-well plates or 2×10^4 cells/well in 12-well plates, allowed to adhere overnight, and then transfected for 24 to 72 hours with 2 to 5 μg of either scrambled, p21^WAF1/CIP1 (1022539), RhoB (SI00058933) or PPAR-γ-specific siRNA duplexes (Qiagen Valencia, Calif.) using RNAiFect reagent (Qiagen). The DNA target sequence for PPAR-γ was 5′-[…]-3′. After transfection, cells in the 6-well plates were treated with either DMSO diluent or 10 nM RS5444 for 24 hours and then analyzed by either real time PCR or immunoblotting. Cells in the 12-well plates were exposed for 6 days with medium, and drug changed every 48 hours. After 6 days, cells were washed with PBS (Cellgro), trypsinized, and counted by Beckman Coulter Counter.

PPARγ = molecular target: T1, PPARγ (Homo sapiens, UniProt P37231); assay: PPRE3-tk-luc reporter (dual luciferase) assay in DRO cells; format: cell-based; design: endogenous in cells; host or cells: DRO90-1 (DRO) human anaplastic thyroid carcinoma cells
T1 sequence (P37231 1-505): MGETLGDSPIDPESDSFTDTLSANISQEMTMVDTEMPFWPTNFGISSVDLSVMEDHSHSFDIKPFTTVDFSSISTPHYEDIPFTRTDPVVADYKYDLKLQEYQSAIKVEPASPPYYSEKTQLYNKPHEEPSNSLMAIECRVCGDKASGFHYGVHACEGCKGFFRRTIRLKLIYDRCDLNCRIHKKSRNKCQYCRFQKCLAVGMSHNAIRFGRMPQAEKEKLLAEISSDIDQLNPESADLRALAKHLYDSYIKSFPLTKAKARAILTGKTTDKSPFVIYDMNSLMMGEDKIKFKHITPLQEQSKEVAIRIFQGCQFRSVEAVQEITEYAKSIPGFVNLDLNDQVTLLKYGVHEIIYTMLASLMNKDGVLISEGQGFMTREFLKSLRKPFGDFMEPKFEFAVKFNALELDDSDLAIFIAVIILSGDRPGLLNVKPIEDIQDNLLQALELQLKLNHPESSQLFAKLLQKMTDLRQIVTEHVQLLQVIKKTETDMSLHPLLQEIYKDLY
Experimental: The effects of PPARγ agonists on DRO cells were investigated. […] Firefly luciferase activity was normalized to renilla […] activity (RLU) and plotted as mean values ±S.D. (FIG. 3A).
Cells were transfected with siRNA for 72 hours followed by transfected with a PPRE3-tk-luc reporter and treatment with 10 nM RS5444 for 24 hours. […] Cotransfection with renilla luciferase allowed for normalization to relative light units (RLU).
Cells were plated in 6-well culture plates at initial concentrations of 2×10^5 cells/well. After overnight incubation, cells were transfected with PPRE/luc and CMV/renilla luciferase plasmid using Lipofectamine 2000 (Invitrogen), and after 24 hours, cells were treated with PPAR-γ agonists at indicated concentrations. After 24 hours of drug treatments, cells were washed with PBS and lysed in 1× reporter lysis buffer (Roche), and luciferase activity was measured with a Dual Luciferase assay kit (Promega, Madison Wis.) with a luminometer (Veritas/Turner Biosystems). The enzyme activity was normalized for efficiency of transfection on the basis of renilla activity levels and reported as relative light units (RLU).

[3] = DRO cells treated every 48 hours over six days, read-out: IC50, concentration at which 50% of cell proliferation was inhibited

**Q.** What does the source list for `COC(=O)[C@H](CCSC)NC(=O)c1ccc(NC[C@@H](N)CS)cc1-c1ccccc1` [FTI-277]?
**A.** RhoB and p21 expression (Western blot) (DRO cells [1]; 24 hours, 10 nM RS5444, 1 ng/mL FK-228, 10 μM FTI-277): upregulation of both RhoB and p21 expression; inhibition of cell proliferation with RhoB vs scrambled siRNA (DRO cells [2]; DRO cells transfected with RhoB or scrambled siRNA, treated every 48 hours for 6 days): dependent upon the upregulation of RhoB polypeptide to inhibit cell proliferation

**Q.** What does the source list for `O=C(Nc1ccccc1)c1cc([N+](=O)[O-])ccc1Cl` [GW9662]?
**A.** effect of antagonist on RS5444-induced RhoB polypeptide expression (DRO cells [1]; GW9662 plus 10 nM RS5444, 24 hours): abolished; also recorded: blocked the ability of RS5444 to elevate RhoB polypeptide expression; effect on RS5444 inducible luciferase activity (PPARγ; 10 μM GW9662 followed by 10 nM RS5444 one hour later): complete loss of RS5444 inducible luciferase activity; effect on agonist activation of PPARγ-induced luciferase activity (PPARγ; DRO cells pretreated 5 minutes with 10 μM GW9662 before 10 nM RS5444, 1 μM rosiglitazone or 10 μM troglitazone): abolished; effect on growth inhibition by TZDs (DRO cells [2]; DRO cells pretreated one hour with 10 μM GW9662 before 10 nM RS5444, 1 μM rosiglitazone or 10 μM troglitazone, every 48 hours over six days): no longer growth inhibited

**Q.** `CN(CCOc1ccc(CC2SC(=O)NC2=O)cc1)c1ccccn1` (stereo not drawn) [rosiglitazone] was tested. Which pIC50 (DRO cells [2]; [3]) did it give?
**A.** ~7.12

**Q.** `Cc1c(C)c2c(c(C)c1O)CCC(C)(COc1ccc(CC3SC(=O)NC3=O)cc1)O2` (stereo not drawn) [troglitazone] was tested. Which pIC50 (DRO cells [2]; DRO cells treated every 48 hours for six days (FIG. 3B legend), read-out: IC50, DRO cell number) did it give?
**A.** ~5.85

**Q.** What about the pIC50 (DRO cells [2]; [3]) of the same molecule?
**A.** ~5.85
